Laboratory results: patent US6060608A, “Analogs of CC-1065 and the duocarmycins” (The Scripps Research Institute, priority 1999, dated 2000)

Key:
[1] = cited from earlier work
[2] = cited from earlier work; remark: listed apart in the source
[3] = in vivo; cited from earlier work
[4] = system: w794 DNA, 5'-AATTA high affinity site; test: Relative rate of DNA alkylation at the w794 5'-AATTA high affinity site; type: biochemical, SV40; conditions: 25° C.
Protocol: Rate of DNA Alkylation. The relative rates of DNA alkylation for the natural enantiommers of CCBI-TMI (35) and CCBI-indole2 (37) versus those of the corresponding CBI and MCBI agents were measured at the single high affinity site in w794, 5'-AATTA. The relative rates earlier studies of DNA alkylation for MCBI-TMI, CBI-TMI, and duocarmycin SA were determined to be quite similar at 4° C., 1.8:1.0:0.9, respectively. […] In prior studies, we have highlighted similar observations with agents that span a much larger range of relative reactivities.
The DNA alkylation selectivity and efficiency of the natural enantiomers of 304-307 were compared with that of 1 in w794 DNA. […] These trends in the overall efficiency of DNA alkylation parallel the relative trends in cytotoxic potency.
(§1) DNA Alkylation Relative Rate of (+)-CCBI-TMI (35), (+)-CBI-TMI, and (+)-MCBI-TMI. Following the procedure detailed above, Eppendorf tubes containing 5' end-labeled w794 DNA (9 μL) in TE buffer (pH 7.5) were treated with (+)-CCBI-TMI (35), (+)-CBI-TMI, or (+)-MCBI-TMI (1 μL, 10^-6 M in DMSO). The solutions were mixed and incubated at 25° C. for 2, 4, 6, 9, 12, 15, and 24 h, respectively. Subsequent isolation of the alkylated DNA by EtOH precipitation, resuspension in TE buffer (10 μL, pH 7.5), thermolysis (30 min, 100° C.), PAGE, and autoradiography were conducted as detailed above. Relative rates for alkylation at the w794 high-affinity 5'-AATTA site were derived from the slopes of the plots of percent integrated optical density (IOD) of the high-affinity alkylation cleavage bands versus time.
as §1, with “(+)-CCBI-indole2 (37), (+)-CBI-indole2,” for “(+)-CCBI-TMI (35), (+)-CBI-TMI,”, “(+)-MCBI-indole2.” for “(+)-MCBI-TMI.”, “(+)-CCBI-indole2 (37), (+)-CBI-indole2, and (+)-MCBI-indole2” for “(+)-CCBI-TMI (35), (+)-CBI-TMI, or (+)-MCBI-TMI”

[5] = In vitro cytotoxic activity (cell line not given); type: cell-based
w794 duplex DNA [6] = test: DNA alkylation selectivity and efficiency within w794 DNA, thermally-induced strand cleavage and PAGE; type: biochemical, SV40
Method in brief: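 5′-32P end-labeled w794 duplex DNA in TE buffer (pH 7.2–7.5) incubated with agent in DMSO across concentrations, 4–37 °C for 24–76 h depending on agent. Unbound agent removed by EtOH precipitation; thermolysis 100 °C, 30 min cleaves alkylation sites, mapped by denaturing 8% PAGE beside Sanger standards and autoradiography.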

[7] = system: w794 DNA, 5'-AATTA high affinity site; test: Relative rate of DNA alkylation at the w794 5'-AATTA high affinity site; type: biochemical, SV40; conditions: 10^-5 M, 25° C., 1-72 h
w794 duplex DNA [8] = conditions: unnatural enantiomers; prior comparison; cited from earlier work
DNA [9] = conditions: cited from earlier work
DNA [10] = conditions: cited from earlier work; remark: listed apart in the source
[11] = system: w794 DNA, 5'-AATTA high affinity site; conditions: 4° C., earlier studies, 1.8:1.0:0.9; cited from earlier work

Compound: O=C(Nc1ccc2[nH]c(C(=O)N3CC4CC45C3=CC(=O)c3ccccc35)cc2c1)c1cc2ccccc2[nH]1 (single isomer, unassigned) [CBI-indole2]
- cytotoxic potency greater than (+)-CPI-indole2 (U71,184) [1]: 4 ×
- in vivo antitumor activity [2]: potent and efficacious In vivo antitumor activity
- delayed toxicity [3]: lacked the delayed fatal toxicity
- relative rate of DNA alkylation, indole2 series [4]: 1.0 ×

Compound: COC(=O)c1cc2c([nH]1)C(=O)C=C1N(C(=O)c3cc4cc(OC)ccc4[nH]3)CC3CC123 (single isomer, unassigned) [compound 305]
- properties relative to duocarmycin SA or 304 [5]: indistinguishable
- cytotoxic activity relative to duocarmycin SA or 304 (words) ([5]; listed as (+)-305): indistinguishable from duocarmycin SA
- DNA alkylation properties, comparison in words (w794 duplex DNA [6]): essentially indistinguishable from 1 itself
- krel, faster than 304 [7]: 18-33

Compound: COc1c(O)c2c(c3cc(C(=O)N4CCc5c4c(O)c(OC)c4[nH]c(C(=O)N6CC7CC78C6=CC(=O)c6[nH]cc(C)c68)cc54)[nH]c13)CCN2C(N)=O (single isomer, unassigned; (+)) [(+)-CC-1065]
- delayed toxicity [3]: delayed fatal toxicity

Compound: COc1cc2cc(C(=O)N3CC4CC45C3=CC(=O)c3ccccc35)[nH]c2c(OC)c1OC (single isomer, unassigned; (-)) [(-)-CBI-TMI]
- distinction in DNA alkylation efficiency from ent-(-)-duocarmycin SA (w794 duplex DNA [8]): 10 ×

Compound: Cc1c(N)nc([C@H](CC(N)=O)NC[C@H](N)C(N)=O)nc1C(=O)N[C@H](C(=O)N[C@H](C)[C@@H](O)[C@H](C)C(=O)N[C@H](C(=O)NCCc1nc(-c2nc(C(=O)NCCC[S+](C)C)cs2)cs1)[C@@H](C)O)[C@@H](O[C@@H]1O[C@@H](CO)[C@@H](O)[C@H](O)[C@@H]1O[C@H]1O[C@H](CO)[C@@H](O)[C@H](OC(N)=O)[C@@H]1O)c1c[nH]cn1.[Br-] [compound 104]
- apparent binding site size (DNA [9]): 3.8 base-pairs
- Kd (DNA [9]; dna, read-out: apparent DNA binding constant Kapp): 10 µM

Compound: COC(=O)[C@]1(C)NC2=C(C1=O)[C@@]13C[C@@H]1CN(C(=O)c1cc4cc(OC)c(OC)c(OC)c4[nH]1)C3=CC2=O [duocarmycin A]
- adenine N3 adduct quantitated (DNA [10]): 86-92%

Compound: COC(=O)c1cc2c([nH]1)C(=O)C=C1N(C(=O)c3cc4cc(OC)c(OC)c(OC)c4[nH]3)CC3CC123 (stereo not drawn) [duocarmycin SA]
- relative rate of DNA alkylation [11]: 0.9
- adenine N3 adduct quantitated (DNA [10]): 95-100%
- properties relative to duocarmycin SA or 304 [5]: indistinguishable
- DNA alkylation properties, comparison in words (w794 duplex DNA [6]): exhibited the same selectivity and efficiency of DNA alkylation
- concentration of detectable alkylation of high affinity site 5'-AATTA (w794 duplex DNA [6]; 25° C., 24 h): 10^-6 to 10^-7 M
- relative rate of DNA alkylation, TMI series ([4]; 10^-6 M): 0.9 ×
- krel, 1 relative to 305 [7]: 1.3-2.3
- krel, faster than 304 [7]: 18-33
